Results reported in patent publication US20230303570A1, “KINASE INHIBITORS AND USES THEREOF” (ABM Therapeutics Corporation, priority 2020, published 2023).

Experiments:
[1] = Mouse pharmacokinetics study (intravenous and oral); type: in vivo; conditions: mouse, plasma; CD-1 mice, PO 25 mg/kg
Text: The test articles were formulated in […] Hydroxypropyl-beta-cyclodextrin, either as a clear solution or fine suspension.

PAK1 = PAK1 (Homo sapiens, UniProt Q13153); test: In vitro kinase assay, PAK1 (Caliper EZ Reader conversion); type: biochemical; parameters: purchased Carna Biosciences
Procedure: (§1) The effect of the compounds on the activity of SRC and PAK1 kinase were assessed. SRC and PAK1 kinase enzymes were obtained from Carna Biosciences.
(§2) Test compounds were dissolved in 100% DMSO to prepare a 20 mM stock. Compounds were stored in −20° C. and protected from light. A 100×solution of the compounds were prepared, from which 4-fold serial dilutions was made to achieve a total of 6 concentrations. Saracatinib was used as a positive control for the SRC assay, and FRAX597 was used as a positive control for the PAK1 assay. For the positive controls, a 3-fold serial dilution was made to achieve a total of 10 concentrations. 10 μL 1× Kinase buffer was used as the negative control.
(§3) First, 250 nL of the compounds at each dilution were transferred into wells of a 384-well plate. The PAK1 and SRC kinases were diluted to a 2.5×final concentration with 1×Kinase buffer. Then, 10 μL of enzyme mix was added to the 384-well plate, and the enzymes and compounds were pre-incubated at room temperature for 10 minutes. […] Then, 15 μL of substrate mix was added to a 384-well plate and reacted at room temperature for 30 min and 60 min. The reaction was stopped by adding 30 μL of the stop buffer, and the conversion rate was read using a Caliper EZ Reader.
(§4) Percent inhibition is calculated according to the following equation: […]
(§5) wherein “Conversion %_sample” is the conversion percentage value of the sample; “Conversion %_min” is the average conversion percentage value of the negative control; and “Conversion %_max” is the average conversion percentage value of the positive control.
(§6) The dose-response curve was fitted using GraphPad Prism software (version 5, […]), and the IC50 values for each compounds were calculated by log(inhibitor) vs. response using a variable slope program with the following formula:
(§7) Y=Bottom+(Top-Bottom)/(1+10^((Log IC50−X)*HillSlope))

SRC = molecular target: T1, SRC (Homo sapiens, UniProt P12931); test: In vitro kinase assay, SRC (Caliper EZ Reader conversion); type: biochemical; conditions: read-out: SRC IC50
T1 construct: purchased Carna Biosciences
Procedure: as §1
as §2, with “A 100×solution of the compounds were prepared, from which 4-fold serial dilutions was made to achieve a total of 6 concentrations.” left out
as §3, with “The PAK1 and SRC kinases were diluted to a 2.5×final concentration with 1×Kinase buffer.” left out
as §4, §5, §6, §7

Sequence of PAK1 (Q13153 whole entry): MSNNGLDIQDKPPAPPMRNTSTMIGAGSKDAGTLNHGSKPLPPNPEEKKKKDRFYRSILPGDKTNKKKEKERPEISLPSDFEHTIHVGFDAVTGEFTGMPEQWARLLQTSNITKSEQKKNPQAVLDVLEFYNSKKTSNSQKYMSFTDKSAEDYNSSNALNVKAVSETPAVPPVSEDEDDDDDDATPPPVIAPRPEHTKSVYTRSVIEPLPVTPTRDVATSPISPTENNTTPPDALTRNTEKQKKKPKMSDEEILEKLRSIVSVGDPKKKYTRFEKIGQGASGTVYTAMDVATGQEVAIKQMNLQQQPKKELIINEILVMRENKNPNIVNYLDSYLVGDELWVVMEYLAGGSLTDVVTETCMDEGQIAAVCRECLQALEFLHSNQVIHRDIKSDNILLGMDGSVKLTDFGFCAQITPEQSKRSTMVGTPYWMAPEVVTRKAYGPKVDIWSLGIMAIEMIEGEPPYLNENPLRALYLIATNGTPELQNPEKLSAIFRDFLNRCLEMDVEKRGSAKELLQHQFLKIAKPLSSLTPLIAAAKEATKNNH
T1 sequence (P12931 whole entry): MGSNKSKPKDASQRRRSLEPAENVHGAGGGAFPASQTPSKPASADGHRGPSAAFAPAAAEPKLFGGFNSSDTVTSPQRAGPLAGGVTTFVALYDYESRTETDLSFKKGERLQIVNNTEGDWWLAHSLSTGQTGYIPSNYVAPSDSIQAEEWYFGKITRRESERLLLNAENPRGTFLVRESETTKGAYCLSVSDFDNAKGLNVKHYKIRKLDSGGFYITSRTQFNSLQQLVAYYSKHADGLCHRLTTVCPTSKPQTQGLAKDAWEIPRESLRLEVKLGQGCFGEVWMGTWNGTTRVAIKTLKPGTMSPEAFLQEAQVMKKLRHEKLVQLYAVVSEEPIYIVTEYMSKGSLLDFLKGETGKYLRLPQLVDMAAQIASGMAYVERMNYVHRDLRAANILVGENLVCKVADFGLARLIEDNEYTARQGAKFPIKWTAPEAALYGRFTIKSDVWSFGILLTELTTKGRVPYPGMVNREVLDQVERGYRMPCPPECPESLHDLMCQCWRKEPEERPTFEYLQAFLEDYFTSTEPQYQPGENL

AUC [1] [ng·h/mL]	Cmax [1] [ng/mL]	Tmax [1] [h]	IC50 (PAK1) [µM]	IC50 (SRC) [µM]	SMILES
11700 ± 1430	1180 ± 193	1.33 ± 0.58			Cc1ccc(NC(=O)c2cc(C(F)(F)F)ccn2)cc1C1=Cc2cnc(Nc3cncs3)nc2N2CCN=C12 [Compound 256, N-(4-methyl-3-(2-(thiazol-5-ylamino)-8,9-dihydroimidazo[1′,2′:1,6]pyrido[2,3-d]pyrimidin-6-yl)phenyl)-4-(trifluoromethyl)picolinamide]
			0.1 to 10	< 0.1	Fc1cc(Nc2ncc3c(n2)N2CCN=C2C(c2ccccc2Cl)=C3)ccc1N1CCNCC1 [Compound 11, 6-(2-chlorophenyl)-N-(3-fluoro-4-(piperazin-1-yl)phenyl)-8,9-dihydroimidazo[1′,2′:1,6]pyrido[2,3-d]pyrimidin-2-amine]
			> 10	< 0.1	Fc1cc(Nc2ncc3c(n2)N2CCN=C2C(c2ccccc2)=C3)ccc1N1CCNCC1 [Compound 27, N-(3-fluoro-4-(piperazin-1-yl)phenyl)-6-phenyl-8,9-dihydroimidazo[1′,2′:1,6]pyrido[2,3-d]pyrimidin-2-amine]
			> 10	> 10	COc1nc(N2CCNCC2)ccc1Nc1ncc2c(n1)N1CCN=C1C(c1ccc(-n3ccnc(C)c3=O)cc1)=C2 [Compound 42, 1-(4-(2-((2-methoxy-6-(piperazin-1-yl)pyridin-3-yl)amino)-8,9-dihydroimidazo[1′,2′:1,6]pyrido[2,3-d]pyrimidin-6-yl)phenyl)-3-methylpyrazin-2(1H)-one]
			> 10	> 10	Clc1cnccc1C1=Cc2cnc(Nc3ccncc3)nc2N2CCN=C12 [Compound 46, 6-(3-chloropyridin-4-yl)-N-(pyridin-4-yl)-8,9-dihydroimidazo[1′,2′:1,6]pyrido[2,3-d]pyrimidin-2-amine]
			> 10	> 10	CCNc1ncc2c(n1)N1CCN=C1C(c1ccc(Cl)cc1Cl)=C2 [Compound 4, 6-(2,4-dichlorophenyl)-N-ethyl-8,9-dihydroimidazo[1′,2′:1,6]pyrido[2,3-d]pyrimidin-2-amine]
			> 10	> 10	COc1nc(N2CCNCC2)ccc1Nc1ncc2c(n1)N1CCN=C1C(c1ccccn1)=C2 [Compound 39, N-(2-methoxy-6-(piperazin-1-yl)pyridin-3-yl)-6-(pyridin-2-yl)-8,9-dihydroimidazo[1′,2′:1,6]pyrido[2,3-d]pyrimidin-2-amine]
			> 10	> 10	CNc1ncc2c(n1)N1CCCN=C1C(c1ccc(N3CCN(C)C3=O)cc1Cl)=C2 [Compound 71, 1-(3-chloro-4-(2-(methylamino)-9,10-dihydro-8H-pyrido[1,6-a:2,3-d′]dipyrimidin-6-yl)phenyl)-3-methylimidazolidin-2-one]
			0.1 to 10	< 0.1	OCc1cccc(Nc2ncc3c(n2)N2CCN=C2C(c2ccccc2Cl)=C3)c1 [Compound 13, (3-((6-(2-chlorophenyl)-8,9-dihydroimidazo[1′,2′:1,6]pyrido[2,3-d]pyrimidin-2-yl)amino)phenyl)methanol]
			> 10	> 10	CNc1ncc2c(n1)N1CCCN=C1C(c1ccc(-n3ccnc(C)c3=O)cc1Cl)=C2 [Compound 73, 1-(3-chloro-4-(2-(methylamino)-9,10-dihydro-8H-pyrido[1,6-a:2,3-d′]dipyrimidin-6-yl)phenyl)-3-methylpyrazin-2(1H)-one]
			0.1 to 10	> 10	CNc1ncc2c(n1)N1CCN=C1C(c1ccc(N3CCN(C)C3=O)cc1Cl)=C2 [Compound 23, 1-(3-chloro-4-(2-(methylamino)-8,9-dihydroimidazo[1′,2′:1,6]pyrido[2,3-d]pyrimidin-6-yl)phenyl)-3-methylimidazolidin-2-one]
			> 10	0.1 to 10	Clc1ccc(C2=Cc3cnc(Nc4ccncc4)nc3N3CCN=C23)c(Cl)c1 [Compound 47, 6-(2,4-dichlorophenyl)-N-(pyridin-4-yl)-8,9-dihydroimidazo[1′,2′:1,6]pyrido[2,3-d]pyrimidin-2-amine]
			> 10	< 0.1	COc1cccc(Nc2ncc3c(n2)N2CCN=C2C(c2ccccc2Cl)=C3)c1 [Compound 17, 6-(2-chlorophenyl)-N-(3-methoxyphenyl)-8,9-dihydroimidazo[1′,2′:1,6]pyrido[2,3-d]pyrimidin-2-amine]
			0.1 to 10	< 0.1	Fc1cc(Nc2ncc3c(n2)N2CCCN=C2C(c2ccc(Cl)cc2Cl)=C3)ccc1N1CCNCC1 [Compound 69, 6-(2,4-dichlorophenyl)-N-(3-fluoro-4-(piperazin-1-yl)phenyl)-9,10-dihydro-8H-pyrido[1,6-a:2,3-d′]dipyrimidin-2-amine]
			> 10	> 10	Clc1ccc(C2=Cc3cnc(NC4CCOCC4)nc3N3CCN=C23)c(Cl)c1 [Compound 5, 6-(2,4-dichlorophenyl)-N-(tetrahydro-2H-pyran-4-yl)-8,9-dihydroimidazo[1′,2′:1,6]pyrido[2,3-d]pyrimidin-2-amine]
			0.1 to 10	> 10	CNc1ncc2c(n1)N1CCCN=C1C(c1ccc(-n3cccc(C)c3=O)cc1Cl)=C2 [Compound 72, 1-(3-chloro-4-(2-(methylamino)-9,10-dihydro-8H-pyrido[1,6-a:2,3-d′]dipyrimidin-6-yl)phenyl)-3-methylpyridin-2(1H)-one]
			0.1 to 10	< 0.1	Fc1cc(Nc2ncc3c(n2)N2CCN=C2C(c2ccc(Cl)cc2)=C3)ccc1N1CCNCC1 [Compound 26, 6-(4-chlorophenyl)-N-(3-fluoro-4-(piperazin-1-yl)phenyl)-8,9-dihydroimidazo[1′,2′:1,6]pyrido[2,3-d]pyrimidin-2-amine]
			> 10	0.1 to 10	Fc1cc(N2CCNCC2)ccc1Nc1ncc2c(n1)N1CCN=C1C(c1ccccc1)=C2 [Compound 29, N-(2-fluoro-4-(piperazin-1-yl)phenyl)-6-phenyl-8,9-dihydroimidazo[1′,2′:1,6]pyrido[2,3-d]pyrimidin-2-amine]
			> 10	0.1 to 10	Fc1cc(N2CCNCC2)ccc1Nc1ncc2c(n1)N1CCN=C1C(c1ccc(Cl)cc1)=C2 [Compound 28, 6-(4-chlorophenyl)-N-(2-fluoro-4-(piperazin-1-yl)phenyl)-8,9-dihydroimidazo[1′,2′:1,6]pyrido[2,3-d]pyrimidin-2-amine]
			> 10	0.1 to 10	CN1CCN(CCNc2ncc3c(n2)N2CCN=C2C(c2c(Cl)cccc2Cl)=C3)CC1 [Compound 48, 6-(2,6-dichlorophenyl)-N-(2-(4-methylpiperazin-1-yl)ethyl)-8,9-dihydroimidazo[1′,2′:1,6]pyrido[2,3-d]pyrimidin-2-amine]
			> 10	< 0.1	Fc1ccc(Nc2ncc3c(n2)N2CCN=C2C(c2ccccc2Cl)=C3)cc1 [Compound 19, 6-(2-chlorophenyl)-N-(4-fluorophenyl)-8,9-dihydroimidazo[1′,2′:1,6]pyrido[2,3-d]pyrimidin-2-amine]
			> 10	0.1 to 10	Fc1cc(N2CCNCC2)ccc1Nc1ncc2c(n1)N1CCCN=C1C(c1ccc(Cl)cc1Cl)=C2 [Compound 68, 6-(2,4-dichlorophenyl)-N-(2-fluoro-4-(piperazin-1-yl)phenyl)-9,10-dihydro-8H-pyrido[1,6-a:2,3-d′]dipyrimidin-2-amine]
			0.1 to 10	0.1 to 10	COc1nc(N2CCNCC2)ccc1Nc1ncc2c(n1)N1CCN=C1C(c1ccc(Cl)cc1Cl)=C2 [Compound 35, 6-(2,4-dichlorophenyl)-N-(2-methoxy-6-(piperazin-1-yl)pyridin-3-yl)-8,9-dihydroimidazo[1′,2′:1,6]pyrido[2,3-d]pyrimidin-2-amine]
			0.1 to 10	< 0.1	CN(C)CCOc1ccc(Nc2ncc3c(n2)N2CCN=C2C(c2ccccc2Cl)=C3)cc1 [Compound 22, 6-(2-chlorophenyl)-N-(4-(2-(dimethylamino)ethoxy)phenyl)-8,9-dihydroimidazo[1′,2′:1,6]pyrido[2,3-d]pyrimidin-2-amine]
